Broadly, the IC50 is the concentration that gives 50% inhibition. What is called melting point is the temperature of the solid-liquid transition.

The source of these data is patent publication US7855209B2, “Allosteric modulators of the A1 adenosine receptor” (King Pharmaceuticals Research and Development, Inc., priority 2006, dated 2010).

The target of data set [1] is T1, human A1-adenosine receptor (Homo sapiens, UniProt P30542).
T1 construct: expressed in transfected cells; host or cells: CHO cells (hCHO-A1 clone)
T1 sequence (P30542 1-326): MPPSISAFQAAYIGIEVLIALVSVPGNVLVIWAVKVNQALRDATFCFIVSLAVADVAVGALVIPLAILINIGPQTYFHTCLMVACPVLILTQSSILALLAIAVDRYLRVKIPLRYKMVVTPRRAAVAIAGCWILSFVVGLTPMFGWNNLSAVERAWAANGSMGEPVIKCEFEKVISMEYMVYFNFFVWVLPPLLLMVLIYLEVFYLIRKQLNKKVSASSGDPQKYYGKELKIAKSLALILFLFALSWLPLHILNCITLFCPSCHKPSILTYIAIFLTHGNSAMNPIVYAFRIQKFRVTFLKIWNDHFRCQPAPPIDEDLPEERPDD
Description: Saturation binding of [3H]CCPA to hCHO-A1 membranes (BMAX). On the procedure: Membrane Preparation from CHO Cells Transfected with the Human Recombinant A1, A2A and A3 Adenosine Receptors:
The hCHO-A1, hCHO-A2A and hCHO-A3 cell clones are grown adherently and maintained in Dulbecco's modified Eagle's medium with nutrient mixture F12, containing 10% fetal calf serum, penicillin (100 U/mL), streptomycin (100 μg/mL), L-glutamine (2 mM), geneticine (G418, 0.2 mg/mL) at 37° C. in 5% CO2/95% air (Klotz et al. Naunyn-Schmied. Arch Pharm. 1998, 357, 1-9). Cells are split two or three times weekly at a ratio of between 1:5 and 1:10. For membrane preparation the culture medium is removed. […] The protein concentration is determined according to a Bio-Rad method (Bradford, 1976) with bovine albumin as a standard reference. […]
To determine the effect of the compounds of the present invention on the binding to A1, A2A and A3 receptors, membranes from hCHO-A1, hCHO-A2A, hCHO-A3 are incubated in a buffer solution in the absence and in the presence of the examined compounds. […] Bound and free radioactivity are separated by filtering the assay mixture through Whatman GF/B glass fibre filters using a Micro-mate 196 cell harvester (Packard Instrument Company). The filter bound radioactivity was counted on Top Count Microplate Scintillation Counter (efficacy 57%) with Micro-Scint 20. […]

Data set [2] deals with T1, human A1-adenosine receptor. Description: Functional assay measuring the cAMP level in CHO cells expressing the human A1-adenosine receptor. Type of data set: cell-based. As for the experimental part:
Measurement of cAMP Enhancement in CHO Cells (Functional Assay):
Allosteric enhancement is measured as the action of a test compound at different concentrations (0.01, 0.1, 1 and 10 μM) to reduce the cAMP content of hCHO-A1 cells. To initiate an experiment, growth medium is removed from the 12-well plates and cells are washed once with warm Hanks' buffered saline. The wash solution is then removed and replaced with fresh Hanks' solution containing forskolin (1 μM), rolipram (20 μM), N^6-cyclopentyladenosine (CPA, 0.01 nM), adenosine deaminase (2 U/mL), and the test compound. Forskolin is used to stimulate the activity of adenylyl cyclase, rolipram to inhibit cAMP phosphodiesterase, adenosine deaminase to degrade endogenous adenosine, and CPA to cause a small increase of the number of activated adenosine receptors. […] The content of cAMP in acidified extracts of cells is determined by radioimmunoassay as previously described (Kollias-Baker et al. J. Pharmacol. Exp. Ther. 1997, 281, 761-768). Because the magnitude of the effects of allosteric modulators on hCHO-A1 cells change subtly with passage number and differ slightly among different aliquots of cells, the actions of the test compounds and the action of a reference compound (PD 81,723) are assessed in each experiment. […]
In general terms: Cyclic AMP is a second messenger, typically raised through Gs and lowered through Gi signalling.

With `Nc1scc(CN2CCN(c3ccc(Cl)cc3)CC2)c1C(=O)c1ccc(Cl)cc1` [Example 4, {2-Amino-4-[4-((4-chlorophenyl)piperazin-1-yl)methyl]thiophen-3-yl}(4-chlorophenyl)methanone], the “increase of the BMAX value of the agonist [3H]CCPA” value in data set [1] (at 10 μM concentration, human A1 adenosine receptors) was “up to 600%”. In data set [2], this compound had a concentration for half-maximal inhibition (IC50) of about 100 nM.

As for `Cc1sc(N)c(C(=O)c2ccc(Cl)cc2)c1CN1CCN(c2cccc(F)c2)CC1` [Example 88, {2-Amino-4-[(4-(3-fluorophenyl)piperazin-1-yl)methyl]-5-methylthiophen-3-yl}(4-chlorophenyl)methanone], the melting point was 140 to 141 °C. Regarding `Nc1scc(CN2CCC3(CC2)Oc2cccc(F)c2O3)c1C(=O)c1ccc(Cl)cc1` [Example 60, {2-Amino-4-(4-fluorospiro[benzo[d][1,3]-dioxole-2,4′-piperidine]-1′-ylmethyl)thiophen-3-yl}(4-chlorophenyl)methanone], in data set [1], the “increase in the BMAX value of the agonist [3H]CCPA” value is on record as “about 6 fold”.
